# Measurements as given in article PMC11859928, “Design, Synthesis, and Antiproliferative Activity of Novel Indole/1,2,4-Triazole Hybrids as Tubulin Polymerization Inhibitors” (Pharmaceuticals, 2025).
# Key:
# [1] = target: T1, tubulin (Sus scrofa, UniProt P02550+P02554); experiment: Tubulin polymerization inhibitory assay; assay type: biochemical
# T1 construct: purchased Cytoskeleton Inc., Denver, CO, USA
# From the text: The substances’ effects on tubulin polymerization were examined using the Tubulin Polymerization Assay Kit (Cytoskeleton Inc., Denver, CO, USA) according to the supplier’s instructions, with details described in Appendix A..
# The activity of compounds on tubulin polymerization was investigated using the Tubulin Polymerization Assay Kit (Cytoskeleton Inc., Denver, CO, USA), which works via fluorescent reporter enhancement. […] Docetaxel and vincristine (Apoteket AB, Stockholm, Sweden) served as positive stabilizing and destabilizing controls. Both were used at a 3 µM concentration in PBS.
# [2] = system: multi-drug resistant K562R cell line; set-up: method as in PMID 33038796; conditions: cited from earlier work
# [3] = system: SGC-7901 cancer cell line; set-up: method as in PMID 37182330; conditions: cited from earlier work
# T1 sequence (P02554 whole entry): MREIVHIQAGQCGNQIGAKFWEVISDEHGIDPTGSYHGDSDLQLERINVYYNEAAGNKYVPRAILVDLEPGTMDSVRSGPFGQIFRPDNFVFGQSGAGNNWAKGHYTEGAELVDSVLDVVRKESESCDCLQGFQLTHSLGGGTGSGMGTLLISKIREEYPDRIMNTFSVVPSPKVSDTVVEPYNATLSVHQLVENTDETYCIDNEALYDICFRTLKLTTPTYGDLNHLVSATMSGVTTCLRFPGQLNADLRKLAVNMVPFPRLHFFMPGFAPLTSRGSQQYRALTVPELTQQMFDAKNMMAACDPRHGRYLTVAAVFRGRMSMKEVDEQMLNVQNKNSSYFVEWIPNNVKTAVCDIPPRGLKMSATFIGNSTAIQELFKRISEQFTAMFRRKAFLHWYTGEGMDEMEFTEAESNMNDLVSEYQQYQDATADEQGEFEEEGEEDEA
# T1 sequence (P02550 whole entry): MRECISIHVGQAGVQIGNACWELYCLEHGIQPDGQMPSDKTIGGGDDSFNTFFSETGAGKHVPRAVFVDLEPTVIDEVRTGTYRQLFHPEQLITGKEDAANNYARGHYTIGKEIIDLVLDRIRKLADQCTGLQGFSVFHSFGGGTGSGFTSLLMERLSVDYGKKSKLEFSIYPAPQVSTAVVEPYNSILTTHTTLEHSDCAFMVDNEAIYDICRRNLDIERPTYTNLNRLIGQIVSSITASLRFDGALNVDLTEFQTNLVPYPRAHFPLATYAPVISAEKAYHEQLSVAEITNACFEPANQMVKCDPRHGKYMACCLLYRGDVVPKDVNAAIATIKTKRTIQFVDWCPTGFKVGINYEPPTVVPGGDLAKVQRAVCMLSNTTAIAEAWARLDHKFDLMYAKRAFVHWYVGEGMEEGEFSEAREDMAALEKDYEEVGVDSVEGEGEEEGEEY
smiles,measurement,setting,value
"COc1ccc(/C=C\c2cc(OC)c(OC)c(OC)c2)cc1O [CA-4, combretastatin A-4, reference compound]",%inhibition,[1]; conc 0.01 (unit not given; IC50 from this curve in µg/ml),8.7%
same,%inhibition,[1]; conc 0.1 (unit not given; IC50 from this curve in µg/ml),21.2%
same,%inhibition,[1]; conc 1 (unit not given; IC50 from this curve in µg/ml),34.9%
same,%inhibition,[1]; conc 10 (unit not given; IC50 from this curve in µg/ml),59%
same,%inhibition,[1]; conc 100 (unit not given; IC50 from this curve in µg/ml),84.2%
Cc1cc(-c2cccc(-c3c[nH]c4ccccc34)n2)c2ccccc2n1 [Compound III],"antiproliferative potency, times more effective than CA-4",[2],12 times
same,"antiproliferative potency, times more effective than isoCA-4",[2],1.5 times
COc1cc(-c2nc3scc(-c4cc(Cl)cc(Cl)c4)n3n2)cc(OC)c1OC [IV],IC50,[3],210 nM
